# In ChEMBL document CHEMBL6153028, “Understanding the synergistic sensitization of natural products and antibiotics: An effective strategy to combat MRSA” (2025):
# What was measured:
# Format in all cases: functional
# Staphylococcus aureus [1] = experiment: Synergistic antibacterial activity against methicillin resistant Staphylococcus aureus assessed as fractional inhibitory concentration index in presence of tetracycline
# Staphylococcus aureus [2] = experiment: Synergistic antibacterial activity against methicillin resistant Staphylococcus aureus assessed as fractional inhibitory concentration index in presence of ampicillin
# Staphylococcus aureus [3] = experiment: Synergistic antibacterial activity against methicillin resistant Staphylococcus aureus assessed as fractional inhibitory concentration index in presence of norfloxacin; conditions: time 24 hrs
# Staphylococcus aureus [4] = experiment: Synergistic antimicrobial activity against methicillin-resistant Staphylococcus aureus assessed as fractional inhibitory concentration index in presence of teicoplanin by checkerboard assay
# Staphylococcus aureus [5] = experiment: Synergistic antibacterial activity against methicillin resistant Staphylococcus aureus assessed as fractional inhibitory concentration index in presence of cephradine by checkerboard assay
# Staphylococcus aureus [6] = experiment: Synergistic antibacterial activity against methicillin resistant Staphylococcus aureus assessed as fractional inhibitory concentration index in presence of ampicillin by checkerboard assay
# Staphylococcus aureus [7] = experiment: Synergistic antibacterial activity against methicillin resistant Staphylococcus aureus assessed as fractional inhibitory concentration index in presence of minocycline by checkerboard assay
# Staphylococcus aureus [8] = experiment: Synergistic antibacterial activity against methicillin resistant Staphylococcus aureus assessed as fractional inhibitory concentration index in presence of streptomycin incubated for 24 hrs by checkerboard assay
# Staphylococcus aureus [9] = experiment: Synergistic antibacterial activity against methicillin resistant Staphylococcus aureus assessed as fractional inhibitory concentration index in presence of oxacillin incubated for 24 hrs by checkerboard assay
# Staphylococcus aureus [10] = experiment: Synergistic antibacterial activity against methicillin resistant Staphylococcus aureus assessed as fractional inhibitory concentration index in presence of ciprofloxacin
# Staphylococcus aureus [11] = experiment: Synergistic antibacterial activity against methicillin resistant Staphylococcus aureus assessed as fractional inhibitory concentration index in presence of gentamicin
# Staphylococcus aureus [12] = experiment: Synergistic antimicrobial activity against methicillin-resistant Staphylococcus aureus assessed as fractional inhibitory concentration index in presence of ciprofloxacin incubated for 24 hrs by checkerboard assay
# Staphylococcus aureus [13] = experiment: Synergistic antimicrobial activity against methicillin-resistant Staphylococcus aureus CCARM 3089 assessed as fractional inhibitory concentration index in presence of Ceftiofur incubated for 24 hrs by checkerboard assay
# Staphylococcus aureus [14] = experiment: Synergistic antibacterial activity against methicillin resistant Staphylococcus aureus assessed as fractional inhibitory concentration index in presence of levofloxacin
# Staphylococcus aureus [15] = experiment: Synergistic antibacterial activity against methicillin resistant Staphylococcus aureus assessed as fractional inhibitory concentration index in presence of ceftazidime
# Staphylococcus aureus [16] = experiment: Synergistic antimicrobial activity against methicillin-resistant Staphylococcus aureus CCARM 3089 assessed as fractional inhibitory concentration index in presence of oxacillin incubated for 24 hrs by checkerboard assay
# Staphylococcus aureus [17] = experiment: Synergistic antimicrobial activity against methicillin-resistant Staphylococcus aureus CCARM 3089 assessed as fractional inhibitory concentration index in presence of Chloramphenicol incubated for 24 hrs by checkerboard assay
# Staphylococcus aureus [18] = experiment: Synergistic antimicrobial activity against methicillin-resistant Staphylococcus aureus assessed as fractional inhibitory concentration index in presence of minocycline by checkerboard assay
# Staphylococcus aureus [19] = experiment: Synergistic antimicrobial activity against methicillin-resistant Staphylococcus aureus assessed as fractional inhibitory concentration index in presence of fosfomycin by checkerboard assay
# Staphylococcus aureus [20] = experiment: Synergistic antimicrobial activity against methicillin-resistant Staphylococcus aureus assessed as fractional inhibitory concentration index in presence of gentamicin by checkerboard assay
# Staphylococcus aureus [21] = experiment: Synergistic antimicrobial activity against methicillin-resistant Staphylococcus aureus assessed as fractional inhibitory concentration index in presence of chloramphenicol by checkerboard assay
# Staphylococcus aureus [22] = experiment: Synergistic antibacterial activity against methicillin resistant Staphylococcus aureus assessed as fractional inhibitory concentration index in presence of erythromycin by checkerboard assay
# Staphylococcus aureus [23] = experiment: Synergistic antimicrobial activity against methicillin resistant Staphylococcus aureus assessed as fractional inhibitory concentration index incubated for 24 hrs in presence of ciprofloxacin by checkerboard assay
# Staphylococcus aureus [24] = experiment: Synergistic antimicrobial activity against methicillin-resistant Staphylococcus aureus assessed as fractional inhibitory concentration index in presence of penicillin G incubated for 24 hrs by checkerboard assay
# Staphylococcus aureus [25] = experiment: Synergistic antimicrobial activity against methicillin-resistant Staphylococcus aureus assessed as fractional inhibitory concentration index in presence of cefixime incubated for 24 hrs by checkerboard assay
# Staphylococcus aureus [26] = experiment: Synergistic antimicrobial activity against methicillin-resistant Staphylococcus aureus assessed as fractional inhibitory concentration index in presence of amoxicillin incubated for 24 hrs by checkerboard assay
# Staphylococcus aureus [27] = experiment: Synergistic antimicrobial activity against methicillin-resistant Staphylococcus aureus assessed as fractional inhibitory concentration index in presence of Ceftriaxone incubated for 24 hrs by checkerboard assay
# Staphylococcus aureus [28] = experiment: Synergistic antimicrobial activity against methicillin-resistant Staphylococcus aureus assessed as fractional inhibitory concentration index in presence of ampicillin incubated for 24 hrs by checkerboard assay
structure (smiles),measurement,setting,value
COc1cc2oc(-c3ccc(O)cc3O)c(CC=C(C)C)c(=O)c2c(O)c1/C=C/C(C)C [ARTOCARPIN],fractional inhibitory concentration index (FICI),Staphylococcus aureus [1],0.24
same,fractional inhibitory concentration index (FICI),Staphylococcus aureus [2],0.37
same,fractional inhibitory concentration index (FICI),Staphylococcus aureus [3],0.15
COc1cc(OC)c2ccc(=O)oc2c1OCC=C(C)C [ARTANIN],fractional inhibitory concentration index (FICI),Staphylococcus aureus [4],<0.5
O=c1cc(-c2ccc(O)c(O)c2)oc2cc(O)cc(O)c12 [LUTEOLIN],fractional inhibitory concentration index (FICI),Staphylococcus aureus [5],0.44
same,fractional inhibitory concentration index (FICI),Staphylococcus aureus [6],0.125
O=c1c(O)c(-c2ccc(O)c(O)c2)oc2cc(O)cc(O)c12 [QUERCETIN],fractional inhibitory concentration index (FICI),Staphylococcus aureus [7],<=0.5
CC(C)=CCc1cc([C@@H]2CC(=O)c3ccc(O)c(CC=C(C)C)c3O2)ccc1O [GLABROL],fractional inhibitory concentration index (FICI),Staphylococcus aureus [8],0.188
CC(C)=CCc1c(O)cc(O)c2c1O[C@H](c1ccc(O)cc1)CC2=O,fractional inhibitory concentration index (FICI),Staphylococcus aureus [9],0.31
same,fractional inhibitory concentration index (FICI),Staphylococcus aureus [10],0.5
same,fractional inhibitory concentration index (FICI),Staphylococcus aureus [3],0.5
same,fractional inhibitory concentration index (FICI),Staphylococcus aureus [11],0.25
Oc1cc(O)cc(/C=C/c2ccc(O)c(O)c2)c1 [PICEATANNOL],fractional inhibitory concentration index (FICI),Staphylococcus aureus [12],0.375
O=c1c(O)cc([C@H]2Oc3cc(O)cc(O)c3C[C@H]2O)cc2c([C@H]3Oc4cc(O)cc(O)c4C[C@H]3O)cc(O)c(O)c12 [THEAFLAVIN],fractional inhibitory concentration index (FICI),Staphylococcus aureus [13],0.187
C/C(=C\C(O)=C\O)[C@@H]1Oc2cc(O[C@@H]3O[C@@H](C)[C@H](O)[C@@H](O)[C@H]3O)cc(O)c2C(=O)[C@H]1O,fractional inhibitory concentration index (FICI),Staphylococcus aureus [14],0.25
same,fractional inhibitory concentration index (FICI),Staphylococcus aureus [15],0.187
COc1c(C)c(O)c(CC=C(C)C)c(O)c1Cc1c(O)c(C(C)=O)c(O)c(CC=C(C)C)c1OC,fractional inhibitory concentration index (FICI),Staphylococcus aureus [16],0.008
same,fractional inhibitory concentration index (FICI),Staphylococcus aureus [17],0.393
COc1cc(OC/C=C(\C)CCC=C(C)C)c2ccc(=O)oc2c1,fractional inhibitory concentration index (FICI),Staphylococcus aureus [18],<0.5
same,fractional inhibitory concentration index (FICI),Staphylococcus aureus [19],<0.5
same,fractional inhibitory concentration index (FICI),Staphylococcus aureus [20],<0.5
same,fractional inhibitory concentration index (FICI),Staphylococcus aureus [21],<0.5
COc1ccc(-c2cc(=O)c3c(O)cc(O)cc3o2)cc1O [DIOSMETIN],fractional inhibitory concentration index (FICI),Staphylococcus aureus [22],0.28
COc1cc(/C=C/C(=O)CC(=O)/C=C/c2ccc(O)c(OC)c2)ccc1O [CURCUMIN],fractional inhibitory concentration index (FICI),Staphylococcus aureus [23],0.25
O=c1cc(-c2ccccc2)c2cc(O)c(O)cc2o1,fractional inhibitory concentration index (FICI),Staphylococcus aureus [24],<0.5
same,fractional inhibitory concentration index (FICI),Staphylococcus aureus [25],<0.5
same,fractional inhibitory concentration index (FICI),Staphylococcus aureus [26],<0.5
same,fractional inhibitory concentration index (FICI),Staphylococcus aureus [27],<0.5
same,fractional inhibitory concentration index (FICI),Staphylococcus aureus [28],<0.5
